Experimental data from PubChem BioAssay (NCI).
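All cell lines were grown in 96-well plates and treated with compound for 48 hours. The concentration for 50% growth inhibition is given as GI50. TGI is the concentration that stops growth completely.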

Test system: HT29 colon
Test: inhibition of tumour cell growth, NCI panel, 48 h

| SMILES | GI50 [µM] | TGI [µM] |
| --- | --- | --- |
| COC(=O)c1cc(/C=C/c2ccc(S(N)(=O)=O)cc2)ccc1O | 64.5 | > 100 |
| COc1ccc2c(c1)C(C)Cc1c(ncnc1-n1cnc3cc(C)ccc31)N2C (stereo unspecified) | 0.174 | 0.611 |

Test system: UACC-257 melanoma
Test: inhibition of tumour cell growth, NCI panel, 48 h

| SMILES | GI50 [µM] | TGI [µM] |
| --- | --- | --- |
| c1csc(-c2c3ccc(=[N+]4CCCCC4)cc-3oc3cc(N4CCCCC4)ccc23)c1 | 0.0982 | 0.321 |
| COC(=O)c1cc(/C=C/c2ccc(S(N)(=O)=O)cc2)ccc1O | 59.6 | > 100 |
| Clc1ccc(N=CNc2ccc(-c3nc4ccccc4o3)cc2)cc1 | 32.4 | > 100 |
| COc1ccc2c(c1)C(C)Cc1c(ncnc1-n1cnc3cc(C)ccc31)N2C (stereo unspecified) | 0.158 | 20.8 |

Test system: NCI-H460 lung
Test: inhibition of tumour cell growth, NCI panel, 48 h

| SMILES | TGI [µM] | GI50 [µM] |
| --- | --- | --- |
| CC(C)(C)OC(=O)n1c(-c2ccccc2F)cc(=O)c2cc3c(cc21)OCO3 | > 70.8 | – |
| COC(=O)c1cc(/C=C/c2ccc(S(N)(=O)=O)cc2)ccc1O | 66.4 | 27.5 |
| Clc1ccc(N=CNc2ccc(-c3nc4ccccc4o3)cc2)cc1 | 40.3 | 17.1 |
| COc1ccc2c(c1)C(C)Cc1c(ncnc1-n1cnc3cc(C)ccc31)N2C (stereo unspecified) | 10.3 | 0.128 |

Test system: SF-268 CNS
Test: inhibition of tumour cell growth, NCI panel, 48 h

| SMILES | TGI [µM] | GI50 [µM] |
| --- | --- | --- |
| CC(C)(C)OC(=O)n1c(-c2ccccc2F)cc(=O)c2cc3c(cc21)OCO3 | > 100 | – |
| COC(=O)c1cc(/C=C/c2ccc(S(N)(=O)=O)cc2)ccc1O | > 100 | 37.3 |
| Clc1ccc(N=CNc2ccc(-c3nc4ccccc4o3)cc2)cc1 | 39 | 12.7 |
| COc1ccc2c(c1)C(C)Cc1c(ncnc1-n1cnc3cc(C)ccc31)N2C (stereo unspecified) | 15 | 0.222 |

Test system: SF-295 CNS
Test: inhibition of tumour cell growth, NCI panel, 48 h

| SMILES | TGI [µM] | GI50 [µM] |
| --- | --- | --- |
| CC(C)(C)OC(=O)n1c(-c2ccccc2F)cc(=O)c2cc3c(cc21)OCO3 | > 100 | – |
| COC(=O)c1cc(/C=C/c2ccc(S(N)(=O)=O)cc2)ccc1O | > 100 | 26.5 |
| Clc1ccc(N=CNc2ccc(-c3nc4ccccc4o3)cc2)cc1 | 45.9 | 19.4 |
| COc1ccc2c(c1)C(C)Cc1c(ncnc1-n1cnc3cc(C)ccc31)N2C (stereo unspecified) | 11 | 0.0317 |

Test system: NCI-H522 lung
Test: inhibition of tumour cell growth, NCI panel, 48 h

| SMILES | GI50 [µM] | TGI [µM] |
| --- | --- | --- |
| COC(=O)c1cc(/C=C/c2ccc(S(N)(=O)=O)cc2)ccc1O | 20.2 | 69.6 |
| COc1ccc2c(c1)C(C)Cc1c(ncnc1-n1cnc3cc(C)ccc31)N2C (stereo unspecified) | 0.0544 | 0.325 |

Test system: BT-549 breast
Test: inhibition of tumour cell growth, NCI panel, 48 h

| SMILES | TGI [µM] | GI50 [µM] |
| --- | --- | --- |
| CC(C)(C)OC(=O)n1c(-c2ccccc2F)cc(=O)c2cc3c(cc21)OCO3 | > 100 | – |
| c1csc(-c2c3ccc(=[N+]4CCCCC4)cc-3oc3cc(N4CCCCC4)ccc23)c1 | 0.32 | 0.135 |
| COC(=O)c1cc(/C=C/c2ccc(S(N)(=O)=O)cc2)ccc1O | 56.2 | 16.3 |
| Clc1ccc(N=CNc2ccc(-c3nc4ccccc4o3)cc2)cc1 | 43.6 | 18.7 |
| COc1ccc2c(c1)C(C)Cc1c(ncnc1-n1cnc3cc(C)ccc31)N2C (stereo unspecified) | 7.12 | 0.184 |

Test system: NCI-H226 lung
Test: inhibition of tumour cell growth, NCI panel, 48 h

| SMILES | GI50 [µM] | TGI [µM] |
| --- | --- | --- |
| COC(=O)c1cc(/C=C/c2ccc(S(N)(=O)=O)cc2)ccc1O | 21.4 | 52.9 |
| Clc1ccc(N=CNc2ccc(-c3nc4ccccc4o3)cc2)cc1 | 27.2 | > 100 |
| COc1ccc2c(c1)C(C)Cc1c(ncnc1-n1cnc3cc(C)ccc31)N2C (stereo unspecified) | 0.157 | 16.3 |

Test system: MCF7 breast
Test: inhibition of tumour cell growth, NCI panel, 48 h

| SMILES | TGI [µM] | GI50 [µM] |
| --- | --- | --- |
| CC(C)(C)OC(=O)n1c(-c2ccccc2F)cc(=O)c2cc3c(cc21)OCO3 | > 100 | – |
| COC(=O)c1cc(/C=C/c2ccc(S(N)(=O)=O)cc2)ccc1O | > 100 | 30.7 |
| COc1ccc2c(c1)C(C)Cc1c(ncnc1-n1cnc3cc(C)ccc31)N2C (stereo unspecified) | 12.7 | 0.0379 |

Test system: TK-10 renal
Test: inhibition of tumour cell growth, NCI panel, 48 h

| SMILES | TGI [µM] | GI50 [µM] |
| --- | --- | --- |
| CC(C)(C)OC(=O)n1c(-c2ccccc2F)cc(=O)c2cc3c(cc21)OCO3 | > 100 | – |
| c1csc(-c2c3ccc(=[N+]4CCCCC4)cc-3oc3cc(N4CCCCC4)ccc23)c1 | 0.34 | 0.15 |
| COC(=O)c1cc(/C=C/c2ccc(S(N)(=O)=O)cc2)ccc1O | > 100 | 28.1 |
| Clc1ccc(N=CNc2ccc(-c3nc4ccccc4o3)cc2)cc1 | 54.2 | 21 |

Test system: SK-OV-3 ovarian
Test: inhibition of tumour cell growth, NCI panel, 48 h

| SMILES | GI50 [µM] | TGI [µM] |
| --- | --- | --- |
| c1csc(-c2c3ccc(=[N+]4CCCCC4)cc-3oc3cc(N4CCCCC4)ccc23)c1 | 0.212 | 0.682 |
| COC(=O)c1cc(/C=C/c2ccc(S(N)(=O)=O)cc2)ccc1O | > 100 | > 100 |
| Clc1ccc(N=CNc2ccc(-c3nc4ccccc4o3)cc2)cc1 | 28.6 | > 100 |
| COc1ccc2c(c1)C(C)Cc1c(ncnc1-n1cnc3cc(C)ccc31)N2C (stereo unspecified) | 0.0591 | 11.7 |

Test system: OVCAR-4 ovarian
Test: inhibition of tumour cell growth, NCI panel, 48 h

| SMILES | TGI [µM] | GI50 [µM] |
| --- | --- | --- |
| CC(C)(C)OC(=O)n1c(-c2ccccc2F)cc(=O)c2cc3c(cc21)OCO3 | > 100 | – |
| COC(=O)c1cc(/C=C/c2ccc(S(N)(=O)=O)cc2)ccc1O | > 100 | 72.9 |
| COc1ccc2c(c1)C(C)Cc1c(ncnc1-n1cnc3cc(C)ccc31)N2C (stereo unspecified) | 33.7 | 0.347 |

Test system: IGROV1 ovarian
Test: inhibition of tumour cell growth, NCI panel, 48 h

| SMILES | GI50 [µM] | TGI [µM] |
| --- | --- | --- |
| COC(=O)c1cc(/C=C/c2ccc(S(N)(=O)=O)cc2)ccc1O | 25.7 | > 100 |
| Clc1ccc(N=CNc2ccc(-c3nc4ccccc4o3)cc2)cc1 | 84.2 | > 100 |
| COc1ccc2c(c1)C(C)Cc1c(ncnc1-n1cnc3cc(C)ccc31)N2C (stereo unspecified) | 0.254 | 14.5 |

Test system: SK-MEL-5 melanoma
Test: inhibition of tumour cell growth, NCI panel, 48 h

| SMILES | TGI [µM] | GI50 [µM] |
| --- | --- | --- |
| CC(C)(C)OC(=O)n1c(-c2ccccc2F)cc(=O)c2cc3c(cc21)OCO3 | 1.2 | – |
| c1csc(-c2c3ccc(=[N+]4CCCCC4)cc-3oc3cc(N4CCCCC4)ccc23)c1 | 0.276 | 0.141 |
| COC(=O)c1cc(/C=C/c2ccc(S(N)(=O)=O)cc2)ccc1O | 35.5 | 14.5 |
| Clc1ccc(N=CNc2ccc(-c3nc4ccccc4o3)cc2)cc1 | 30.1 | 15.4 |
| COc1ccc2c(c1)C(C)Cc1c(ncnc1-n1cnc3cc(C)ccc31)N2C (stereo unspecified) | 0.589 | 0.0753 |

Test system: HCT-15 colon
Test: inhibition of tumour cell growth, NCI panel, 48 h

| SMILES | TGI [µM] | GI50 [µM] |
| --- | --- | --- |
| CC(C)(C)OC(=O)n1c(-c2ccccc2F)cc(=O)c2cc3c(cc21)OCO3 | > 31.9 | – |
| COC(=O)c1cc(/C=C/c2ccc(S(N)(=O)=O)cc2)ccc1O | > 100 | 27 |
| Clc1ccc(N=CNc2ccc(-c3nc4ccccc4o3)cc2)cc1 | > 100 | 24.5 |
| COc1ccc2c(c1)C(C)Cc1c(ncnc1-n1cnc3cc(C)ccc31)N2C (stereo unspecified) | 12.9 | 0.207 |

Test system: KM12 colon
Test: inhibition of tumour cell growth, NCI panel, 48 h

| SMILES | GI50 [µM] | TGI [µM] |
| --- | --- | --- |
| COC(=O)c1cc(/C=C/c2ccc(S(N)(=O)=O)cc2)ccc1O | 24 | > 100 |
